For one experiment, the system named is LC8-LC8TRAP complex. The experiment is described as follows: UV light (350 nm) disruption of dimerizer-LC8-LC8TRAP complex, native PAGE. The experiment is classed as biochemical. Particulars: UV 350 nm. The protocol:
(§1) Native PAGE. Each of, LC8 and FKBP-LC8TRAP, were mixed in a molar concentration of 50 μM and 1.2 molar excess (60 μM) of AP20187 or 2.4 molar excess (120 μM) of PhAP20187. The mix were incubated at 4° C. for 5 min. Native PAGE analysis was performed at 16° C. using 8-25% gradient gels on the PHASTSYSTEM™ (GE Biosciences).
Next, we characterized how well UV light could disrupt the PhAP-LC8-LC8TRAP complex in vitro. We generated the PhAP-LC8-LC8TRAP and AP-LC8-LC8TRAP complexes and exposed each to UV light (350 nm). Native PAGE indicated loss of the band corresponding to the PhAP-LC8-LC8TRAP complex and an increase in intensity of bands corresponding to the individual components after UV induction. The band corresponding to the PhAP-LC8-LC8TRAP complex was less intense in samples that received a five min exposure to UV light and undetectable after a 10 min exposure. On the other hand, the LC8-LC8TRAP complex induced by the non-photocleavable AP persisted, even after a 30 min exposure to UV light (FIG. 2C).

In another experiment the target is T1, LC8 and FKBP-LC8TRAP (Homo sapiens, UniProt P62942, F37V).
T1 construct: made in house; host or cells: bacteria (pET21D vector)
In words: Native PAGE of LC8-LC8TRAP complex formation induced by dimerizer. The experiment is classed as biochemical. The note with it: for complex formation between LC8 and FKBP-LC8TRAP (new band): native PAGE, addition of dimerization agent. The method, then:
as §1
We then tested whether this replacement of the amine linker with the o-nitrobenzyl moiety affected the dimerization of FKBP in vitro. We used native PAGE to follow the formation of the LC8-LC8 molecular trap (LC8TRAP) complex induced by addition of PhAP. See e.g., Varma et al., 2010 (Id.) Upon the addition of PhAP to an equimolar mixture of LC8 and LC8TRAP, we observed a new band that migrated the same distance as the band produced by addition of AP (FIG. 2A).
Native PAGE analysis was conducted for stoichiometric complex formation between LC8 and FKBP-LC8TRAP on addition of dimerization agent AP.

Experiment [1] concerns EGFP-FKBP-LC8TRAP transfected COS1 cells. In words: Reversibility of endosome dispersion after UV induction. Format: cell-based. The note with it: for Percentage of endosomes dispersion (recovery): UV 10 min. The protocol: Cell Culture. COS1 cells were cultured in DMEM (CELLGRO®) supplemented with 10% fetal bovine/calf serum (Omega Scientific). Transfection was performed in 80-90% confluent 24-h cultures of COS1 cells using LIPOFECTAMINE™ 2000 (Invitrogen) and OPTI-MEM™ media (GIBCO®) according to the manufacturer's recommendations. Various concentrations (0 nM to 1000 nM) of AP (Ariad Pharmaceuticals Inc.) and PhAP (as described herein) were added to each experimental wells 24 hr. post transfection and incubated for different periods of time before analyzing the cells. For reversibility of endosome dispersion studies, 500 nM of AP/PhAP were used. In each case, the cells were washed well with PBS and supplemented with fresh media before inducing with UV light (10 mins., 4 W, 350 nm) and allowed to recover for various time period at 37° C., before analysis.
Immunostaining and Microscopy. For immunostaining, transiently transfected COS1 cells were fixed with 3.7% formaldehyde at room temperature for 10 min, and subsequent immunostaining was performed as described previously^[2]. Briefly, COS 1 cells grown on 25-mm coverslips were washed 3× with PBS, treated with 3.7% formaldehyde (Sigma) in PBS for fixation, and permeabilized in 0.5% Triton X-100 (Sigma) in PBS at room temperature for 10 min. Cells were then incubated with blocking buffer containing 4% skimmed milk (fat free) and 0.5% Triton X-100 in PBS. Anti-EEA1 monoclonal antibody was added to label early endosome marker protein at a dilution of 1:100 in the same buffer for 30 min at RT, and the coverslips were washed and incubated with rhodamine-conjugated donkey anti-mouse secondary antibody (1:100). After washing, the coverslips were mounted on slides to visualize the trapping effects. Samples were viewed using an Olympus IX81 automated inverted microscope equipped with water immersion 60× objective. The level of dispersion was quantified by counting 100 cells per coverslip. Each experiment was performed in triplicate. Images were obtained using a Spot RT Slider high-resolution cooled CCD camera equipped to IX81 microscope and Image-Pro software. Images were cropped and processed using Adobe Photoshop 7.0 (Adobe Systems).
UV induction. For UV-induction and recovery of endosome studies, cells were washed with PBS and fresh media were added after drug treatment. The washed cells were then treated with a hand held UV-lamp (365 nm/4 watt) for 10 mins. The cells were then left to recover at 37° C. for varying period of time before staining and analysis.
Next, we characterized the reversibility of endosome dispersion in COS1 cells UV-induced cleavage of PhAP. In these experiments, transiently transfected cells were incubated with PhAP (500 nM) or AP for times ranging from 0-2 h, after which cells were washed rapidly, replenished with fresh media, and then exposed to UV light (10 min, 4 W, 350 nm). The cells were then fixed at 0, 1, 2, 4, and 8 h post UV radiation and the endosomes imaged using fluorescence microscopy at 60× magnification. We observed a gradual recovery of endosomes to the perinuclear region during the first 4 h after UV exposure (44.1±2.3%), with a slight increase in dispersion after 8 h (48.9±3.9%), for cells treated with PhAP (FIG. 3A).

Setting [2] is: 30 mins. treatment (500 nM), recovery 0 h.
The mark [3] stands for this setting: 30 mins. treatment (500 nM), recovery 1 h.
Setting [4] is: 30 mins. treatment (500 nM), recovery 2 h.
[5] abbreviates: 30 mins. treatment (500 nM), recovery 4 h.
[6] abbreviates: 30 mins. treatment (500 nM), recovery 8 h.
[7] abbreviates: 1 hr. treatment (500 nM), recovery 0 h.
Setting [8] is: 1 hr. treatment (500 nM), recovery 1 h.
Where [9] appears, read: 1 hr. treatment (500 nM), recovery 2 h.
[10] abbreviates: 1 hr. treatment (500 nM), recovery 4 h.
The mark [11] stands for this setting: 1 hr. treatment (500 nM), recovery 8 h.
Where [12] appears, read: 2 hr. treatment (500 nM), recovery 0 h.
The mark [13] stands for this setting: 2 hr. treatment (500 nM), recovery 1 h.
[14] abbreviates: 2 hr. treatment (500 nM), recovery 2 h.
Where [15] appears, read: 2 hr. treatment (500 nM), recovery 4 h.
The mark [16] stands for this setting: 2 hr. treatment (500 nM), recovery 8 h.

Molecules are shown by their SMILES.

T1 sequence (P62942 with tags, fused parts or gaps F37V): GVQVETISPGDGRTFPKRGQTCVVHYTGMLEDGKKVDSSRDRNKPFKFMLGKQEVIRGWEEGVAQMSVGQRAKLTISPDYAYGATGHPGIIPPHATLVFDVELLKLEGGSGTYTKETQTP

With `CCC(C(=O)N1CCCCC1C(=O)OC(CCc1ccc(OC)c(OC)c1)c1cccc(OCC(=O)NCC(CNC(=O)COc2cccc(C(CCc3ccc(OC)c(OC)c3)OC(=O)C3CCCCN3C(=O)C(CC)c3cc(OC)c(OC)c(OC)c3)c2)CN(C)C)c1)c1cc(OC)c(OC)c(OC)c1` (centres unmarked) [AP, AP20187], the “band of dimerizer-LC8-LC8TRAP complex after UV exposure” value with LC8-LC8TRAP complex (30 min exposure) is recorded as “persisted”. For the same molecule, the “complex formation between LC8 and FKBP-LC8TRAP (new band)” value at LC8 and FKBP-LC8TRAP is on record as “produces a new band”. The “endosome dispersion after UV exposure, all time points” value in experiment [1] (0-8 h post UV, with or without UV exposure) is listed as “remained dispersed at all time points evaluated”. The “Percentage of endosomes dispersion (recovery)” value (shortened to “Percentage”) in experiment [1] (setting [2]) worked out at 51.8 ± 4.4%; in experiment [1] (setting [3]), 64.7 ± 2.0%; in experiment [1] (setting [4]), 68.3 ± 3.7%; in experiment [1] (setting [5]), 69.8 ± 4.3%; in experiment [1] (setting [6]) it was 67.9 ± 1.9%; in experiment [1] (setting [7]) it was 58.0 ± 4.3%. In addition, the “Percentage” value in experiment [1] (setting [8]) is recorded as 71.2 ± 2.5%; in experiment [1] (setting [9]), 69.7 ± 3.6%; in experiment [1] (setting [10]), 70.4 ± 3.1%; in experiment [1] (setting [11]), 70.8 ± 1.9%; in experiment [1] (setting [12]) it was 69.1 ± 3.2%; in experiment [1] (setting [13]), 68.9 ± 3.2%. Besides, the “Percentage” value in experiment [1] (setting [14]) came to 70.7 ± 4.0%; in experiment [1] (setting [15]), 69.5 ± 1.9%; in experiment [1] (setting [16]) it was 70.3 ± 3.3%. In addition, the “saturation point of endosome dispersion” value in experiment [1] (30 minutes or 1 hr treatment followed by UV exposure) is roughly 70%.
As to `CC[C@H](C(=O)N1CCCC[C@H]1C(=O)O[C@H](CCc1ccc(OC)c(OC)c1)c1cccc(OCC(=O)OC(C)c2ccc(C(C)OC(=O)COc3cccc([C@@H](CCc4ccc(OC)c(OC)c4)OC(=O)[C@@H]4CCCCN4C(=O)[C@@H](CC)c4cc(OC)c(OC)c(OC)c4)c3)c([N+](=O)[O-])c2)c1)c1cc(OC)c(OC)c(OC)c1` (some centres unmarked) [PhAP], the “band of dimerizer-LC8-LC8TRAP complex after UV exposure” value in the experiment with LC8-LC8TRAP complex (10 min exposure) is given as “undetectable”; in the experiment with LC8-LC8TRAP complex (five min exposure), “less intense”. For the same molecule, at LC8 and FKBP-LC8TRAP (equimolar mixture of LC8 and LC8TRAP, relative to AP), the “concentration required to produce a complex band of the same intensity as the sample treated with AP” value came to 2 ×. For the same molecule, the “complex formation between LC8 and FKBP-LC8TRAP (new band)” value on LC8 and FKBP-LC8TRAP was “can also form complex between LC8 and FKBP-LC8TRAP efficiently”. The “Percentage” value in experiment [1] (setting [2]) is given as 53.2±2.4%; in experiment [1] (setting [3]), 53.7 ± 4.0%; in experiment [1] (setting [4]) it was 50.8 ± 2.3%; in experiment [1] (setting [5]), 48.0 ± 0.5%; in experiment [1] (setting [6]) it was 49.3 ± 6.7%; in experiment [1] (setting [7]), 57.8±8.0%. The “Percentage” value in experiment [1] (setting [8]) turned out to be 56.4 ± 1.7%; in experiment [1] (setting [9]) it was 55.7 ± 8.8%; in experiment [1] (setting [10]) it was 46.7 ± 0.6%; in experiment [1] (setting [11]), 48.1 ± 2.0%; in experiment [1] (setting [12]), 69.5 ± 2.4%; in experiment [1] (setting [13]) it was 66.3 ± 3.2%. Besides, the “Percentage” value is recorded as 57.6 ± 2.6% in experiment [1] (setting [14]), 44.1±2.3% in experiment [1] (setting [15]) and 48.9±3.9% in experiment [1] (setting [16]).
